From paper PMC10660337, “Mutate and Conjugate: A Method to Enable Rapid In-Cell Target Validation” (ACS Chemical Biology, 2023) come the findings set out here.

In assay [1] the test system is T1, BRD4(1)^L94C transiently expressed in HEK293T cells.
T1 construct: the L94C mutation in the first bromodomain of BRD4 [BRD4(1)]; StrepII; expressed in transfected cells; host or cells: HEK293T
Description: In-cell labeling by clickable probes, in-gel fluorescence. Type of assay: cell-based, human. On the procedure: (§1) To evaluate proteome-wide selectivity of the clickable probes, HEK293T cells transiently expressing BRD4(1)^L94C or BRD4(1)^WT were incubated with 10 μM of probes 28–30 and 42 for 1 h before the cells were lysed and the CuAAC reaction with TAMRA-PEG3-azide was conducted (Figure 7A). […]
(§2) reaction mix was taken and 8 µL of Lamelli buffer added, and the samples denatured by heating at 95 °C for 10 min. Samples were separated by gel electrophoresis on NuPAGE™ 4–12%, Bis-Tris precast polyacrylamide gels (Thermofisher). Following electrophoresis, gels were stained for 15 min with InstantBlueTM Coomasie® stain (Abcam), destained, and imaged using Bio-rad molecular imager.
(§3) Bio-rad Image Lab 6.1 was used to process the data.
(§4) In-cell target engagement
(§5) In-cell labeling by clickable probes
(§6) Transfected HEK293T cells at ~90% confluency were incubated for 1 h with a DMSO control (0.5% DMSO final concentration) or a click probe (10 µM, 0.5% DMSO final concentration) diluted in Opti- […]
Cells were then harvested and lysed using the previously described protocol above. The resulting cell lysates were diluted to 2 mg/mL using the previously described protocol above.
Cell lysates (50 µL) were then incubated with TAMRA-PEG3-Azide (200 µM), TCEP·HCl (2 mM), TBTA (200 µM), and CuSO4 (2 mM), for 1 h at rt in the dark. Samples were then prepared and separated by gel electrophoresis using the previously described protocol above.
Gels were imaged for fluorescence using Bio-rad molecular imager and then stained for 15 min with InstantBlueTM Coomasie® stain (Abcam), destained, and imaged using Bio-rad molecular imager.
Typically, the very bottom of the gel was removed prior to imaging due to residual, unreacted, TAMRA-PEG3-Azide, which would cause oversaturation and poor image quality. […]
MEM media. Cells were then harvested and lysed using the previously described protocol above. […]

The test system is the same in assay [2]. The assay is described as follows: OXFBD04 (3) competition assay in cells. Type of assay: cell-based, human. The following applies: OXFBD04 30 min preincubation, then probe 10 µM for 1 h. The method, then:
Compound engagement with BRD4(1)^L94C was further validated by using an immunoprecipitation (IP) assay (Figure S22). Here, transfected HEK293T cells expressing StrepII-tagged BRD4(1)^L94C or StrepII-tagged BRD4(1)^WT were incubated with compound 42 before being lysed. The StrepII-tagged bromodomains were then pulled down using anti-StrepII antibodies, and the samples were separated by SDS-PAGE for analysis. […]
as §2, §3, §4
In-cell labeling by clickable probes […]
(§7) Gels were imaged for fluorescence using Bio-rad molecular imager and then stained for 15 min with InstantBlueTM Coomasie® stain (Abcam), destained, and imaged using Bio-rad molecular imager. […]
Transfected HEK293T cells at ~90% confluency were incubated for 30 min with a DMSO control or varying concentrations of OXFBD04 diluted in Opti-MEM media. […] Cells were then harvested, processed, and analysed using the previously described protocol above. […]

In assay [3] the target is T2, BRD4(1)^L94C (Homo sapiens, UniProt O60885, L94C).
T2 construct: Characterization of His6-BRD4(1)L94C; made in house; host or cells: E. coli BL21 (DE3)
The assay is described as follows: Protein LCMS labeling assay 1. Type of assay: binding. On the procedure:
The resulting library of 22 fragments was screened for BRD4(1)^L94C binding at a concentration of 50 μM using a protein LCMS assay (referred to as “labeling assay 1”). […] To assess the selectivity of the fragments for the labeling of C94, hits were also screened against BRD4(1)^WT under the same conditions. […] The acrylamide-based fragment, 12, labeled 98% of BRD4(1)^L94C after 4 h. While 95% of the protein was labeled once, 3% of the protein was labeled twice (Figure 5D). […] Fragment 14, designed by appending a β-dimethylaminomethyl acrylamide to the structure of 12, led to 74% of singly labeled BRD4(1)^L94C after 4 h with no labeling of BRD4(1)^WT observed (Table 1 and Figure 5E). […] However, only 9.9% of labeled BRD4(1)^L94C was observed, substantially lower than the 56% labeling observed for the corresponding 3-methyl regioisomer 10 (Table 1). […]
Assays were performed in 1.5 mL Eppendorf tubes at 37 °C and gently shaken, unless otherwise stated.
Experiments were performed in a protein LCMS assay buffer, with 10 µM protein, and 50 µM of the desired compound with a final DMSO concentration of 0.5% (Table S16). Time points were taken at 0, 1 and 4 h, unless otherwise stated, where a 20 µL sample of the reaction mix was taken, diluted with 100 µL Milli-Q water, and flash frozen. Samples were thawed immediately prior to LCMS analysis on a Waters Xevo G2-S system (Waters) fitted with a ProSwift™ RP-2H PSDVB Reversed Phase HPLC Column (Thermofisher). Data was analysed and processed using MassLynx. The total ion chromatograms (TIC) were extracted (region containing protein) and the summed scans were deconvoluted (using MaxEnt). Covalent labeling was calculated using intensities of the unlabeled and labeled protein (Equation 1). Figures were made using GraphPad Prism 7.0.
Table S16. Buffer composition for protein LCMS.
Buffer Reagent Composition Amount per 1 L
Protein LCMS Assay Buffer HEPES 25 mM 6.0 g
Protein Labelling = Intensity of Labelled Peak × 100

For assay [4], the system named is endogenous proteins of HEK293T cells. Description: In-cell proteome-wide selectivity of clickable probes. Type of assay: cell-based, human. The following applies: 10 μM probe, 1 h, live HEK293T cells expressing BRD4(1)^L94C or BRD4(1)^WT. The method, then: as §1, §2, §3, §4, §5, §6
Cells were then harvested and lysed using the previously described protocol above. The resulting cell lysates were diluted to 2 mg/mL using the previously described protocol above. […]
as §7

The mark [5] stands for this setting: 50 μM compound, 10 µM protein, 37 °C, mean of three ± s.e.m., ND = not detectable.

Each structure is given as a SMILES string. Several values for one entry are separate records, joined by “and”; a condition that tells them apart may be missing. Equal values may be shown once. Entries after “also recorded” stand apart in the source; their conditions may differ.

For `C#CCOc1ccc(-c2c(C)noc2NC(=O)C=C)cc1` [Compound 30], the “In-cell BRD4(1)^L94C engagement (fluorescent band ∼49 kDa)” value in assay [1] (10 μM probe, 1 h) is on record as “highest level of BRD4(1)^L94C engagement”. Also, in assay [2], the “BRD4(1)^L94C labeling by probe with increasing concentration of OXFBD04 (3)” value is “concomitant reduction”. The “Labeled Protein (%) L94C 1 h” value in assay [3] (setting [5]) came out at 96 ± 0.2%. The “Second labeling event, share of total labeled protein” value in assay [3] (labeling assay 1, 50 μM) is given as 3%. Further, the “Proteome-wide selectivity / off-target binding to endogenous proteins” value in assay [4] is “low cellular selectivity”.
As to `C#CCOc1cc(NC(=O)C=C)ccc1N1CCCC1=O` [Compound 42], in assay [1] (1 to 10 μM), the “Dose dependence of in-cell BRD4(1)^L94C labeling” value was “dose dependent”. Further, the “Time dependence of in-cell BRD4(1)^L94C labeling” value in assay [1] (time course 0.5–4 h) is given as “time-dependent”. For the same molecule, the “BRD4(1)^L94C labeling by probe with increasing concentration of OXFBD04 (3)” value in assay [2] is listed as “decreased levels”. Also, the “Labeled Protein (%) L94C 1 h” value in assay [3] (setting [5]) is 37% and 37 ± 1.2%. The “Labeled Protein (%) L94C 4 h” value in assay [3] (50 μM compound, 10 µM protein, 37 °C, 4 h, mean of three ± s.e.m., ND = not detectable) was 82% and 82 ± 1.1%. Besides, the “Proteome-wide selectivity / off-target binding to endogenous proteins” value in assay [4] is “exquisite proteome-wide selectivity; also recorded: almost complete selectivity”.
